Tests used:
[1] = permeability of the therapeutic compound; type: in vitro ADME
[2] = pH-dependent solubility of the therapeutic compound; type: physicochemical; settings: pH higher than 3
[3] = 2-Step Dissolution Test (pH 2 then pH 6.8); type: physicochemical; settings: pH 6.8, second step; FIG. 2
Procedure: Capsules containing either Compound A alone, Formulation Variant 1 or Variant 2 are placed in 900 mL of pH 2 HCl and then stirred in a USP Apparatus II rotating at 50 rpm for 10 to 100 minutes (with fast stir from about minute 60 to minute 90). At approximately the 100 minute time point, this medium is adjusted to pH 6.8 and to a volume of 1000 ml and then stirred in a USP Apparatus II rotating at 50 rpm. Samples are filtered using a 100 μm Varian full flow filter and analyzed by UV.
Capsules containing either Compound A alone, Formulation Variants 1 or 2 are separately evaluated using a 2-Step Dissolution Test. This analysis compared the dissolution profile of capsules containing 68.5 mg per unit of 2-methyl-2-[4-(3-methyl-2-oxo-8-quinolin-3-yl-2,3-dihydro-imidazo[4,5-c]quinolin-1-yl)-phenyl]-propionitrile monotosylate salt (which is equivalent to 50 mg of the free base of 2-methyl-2-[4-(3-methyl-2-oxo-8-quinolin-3-yl-2,3-dihydro-imidazo[4,5-c]quinolin-1-yl)-phenyl]-propionitrile) at pH 2 and pH 6.8.
For this analysis, capsules containing either Compound A alone, Formulation Variant 1 or Variant 2 are placed in 900 mL of pH 2 HCl and then stirred in a USP Apparatus II rotating at 50 rpm for 10-100 minutes (with fast stir from about minute 60 to minute 90). […] Samples are filtered using a 100 μm Varian Full Flow filter and analyzed by HPLC.

Which permeability [1] does the source give for `Cn1c(=O)n(-c2ccc(C(C)(C)C#N)cc2)c2c3cc(-c4cnc5ccccc5c4)ccc3ncc21` [Compound A, 2-methyl-2-[4-(3-methyl-2-oxo-8-quinolin-3-yl-2,3-dihydro-imidazo[4,5-c]quinolin-1-yl)-phenyl]-propionitrile] here?
Its permeability is “low”.

What about the solubility [2] of the same molecule?
Its solubility is “approximately 0%”.

And the drug release [3]?
The drug release was “approximately 0%”.

From US20130245061A1, “PHARMACEUTICAL COMPOSITIONS” (NOVARTIS AG, priority 2010, published 2013)
